Like-named read-outs stand apart in the source and are kept apart here.
Key:
[1] = molecular target: T1, rat EP4 receptor (Rattus norvegicus (Rat), UniProt P43114); assay: SEAP activity assay for EP4 agonist (STEP plate format); type: cell-based; details: read-out: STEP cell functional assay EC50 SEAP/EP4
Source text: (§1) Functional Cellular Assays (STEP Plate Format)
(§2) Procedure of SEAP Activity Assay for EP2/EP4 Agonist
(§3) 3. […] In addition each concentration had triplicates.
(§4) 4. […] Cover the plate with the lid.

[2] = molecular target: Human Prostanoid EP4 Receptor (Homo sapiens (Human), UniProt P35408); assay: Radioligand binding assay, agonist site of human prostanoid EP4 receptor in transfected HEK-293 cells; details: for IC50: read-out: hEP4 receptor binding IC50; for Ki: read-out: hEP4 receptor binding Ki
Sequence of Human Prostanoid EP4 Receptor (P35408 whole entry): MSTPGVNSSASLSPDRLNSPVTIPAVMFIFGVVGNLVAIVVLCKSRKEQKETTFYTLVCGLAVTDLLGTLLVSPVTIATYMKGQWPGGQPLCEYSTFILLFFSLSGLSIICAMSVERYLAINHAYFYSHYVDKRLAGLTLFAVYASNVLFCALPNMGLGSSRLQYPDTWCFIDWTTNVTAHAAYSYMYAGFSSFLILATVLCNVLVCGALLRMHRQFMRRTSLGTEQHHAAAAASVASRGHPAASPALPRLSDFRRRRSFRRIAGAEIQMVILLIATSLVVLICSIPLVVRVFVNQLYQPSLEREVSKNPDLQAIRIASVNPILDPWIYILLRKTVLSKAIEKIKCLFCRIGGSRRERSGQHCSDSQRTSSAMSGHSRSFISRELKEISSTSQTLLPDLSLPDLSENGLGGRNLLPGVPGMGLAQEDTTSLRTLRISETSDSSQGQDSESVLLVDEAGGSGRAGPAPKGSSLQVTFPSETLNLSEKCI
Procedure: Radioligand Binding Assay for the Evaluation of the Affinity of Compounds for the Agonist Site of the Human Prostanoid EP4 Receptor in Transfected HEK-293 Cells
Following incubation, the samples are filtered rapidly under vacuum through glass fiber filters (GF/B, Packard) presoaked with 0.3% PEI and rinsed several times with ice-cold 50 mM Tris-HCl using a 96-sample cell harvester (Unifilter, Packard). The filters are dried then counted for radioactivity in a scintillation counter (Topcount, Packard) using a scintillation cocktail (Microscint 0, Packard).

[3] = molecular target: T1, rat EP4 receptor; assay: cAMP level assay for EP4 agonist (STEP plate format); type: cell-based; details: read-out: STEP cell functional assay EC50 cAMP/EP4
Source text: as §1
(§5) Procedure of cAMP Assay for EP2/EP4 Agonist
as §3
(§6) 6. Aspirate the supernatant.

[4] = tested on: calvarial bone defect; assay: Rat calvarial defect model (bone formation); type: in vivo, female Sprague Dawley rats; details: rat cranial defect 2.6 mm, drug in calcium phosphate cement/demineralized bone matrix, eight weeks
[5] = molecular target: T2, rat EP2 receptor (Rattus norvegicus (Rat), UniProt Q62928); assay: SEAP activity assay for EP2 agonist (STEP plate format); type: cell-based; details: read-out: STEP cell functional assay EC50 SEAP/EP2
T2 sequence (Q62928 whole entry): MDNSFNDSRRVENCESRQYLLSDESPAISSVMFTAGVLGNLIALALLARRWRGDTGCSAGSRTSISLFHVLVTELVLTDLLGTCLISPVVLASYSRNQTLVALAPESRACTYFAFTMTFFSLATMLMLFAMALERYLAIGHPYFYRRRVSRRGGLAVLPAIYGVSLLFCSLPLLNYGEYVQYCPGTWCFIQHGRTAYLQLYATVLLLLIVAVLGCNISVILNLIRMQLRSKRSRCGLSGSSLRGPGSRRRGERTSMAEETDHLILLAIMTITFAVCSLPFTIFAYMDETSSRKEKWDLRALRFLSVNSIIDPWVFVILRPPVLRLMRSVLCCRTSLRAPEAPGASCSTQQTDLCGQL
Source text: as §1, §2, §3, §4

[6] = molecular target: T2, rat EP2 receptor; assay: cAMP level assay for EP2 agonist (STEP plate format); type: cell-based; details: cAMP readout, read-out: STEP cell functional assay EC50 cAMP/EP2
Source text: as §1, §5, §3, §6

[7] = SEAP luminescence, 6-8 hours of stimulation
[8] = [3H]PGE2 0.5 nM, HEK-293 cell membrane homogenates

T1 sequence (P43114 whole entry): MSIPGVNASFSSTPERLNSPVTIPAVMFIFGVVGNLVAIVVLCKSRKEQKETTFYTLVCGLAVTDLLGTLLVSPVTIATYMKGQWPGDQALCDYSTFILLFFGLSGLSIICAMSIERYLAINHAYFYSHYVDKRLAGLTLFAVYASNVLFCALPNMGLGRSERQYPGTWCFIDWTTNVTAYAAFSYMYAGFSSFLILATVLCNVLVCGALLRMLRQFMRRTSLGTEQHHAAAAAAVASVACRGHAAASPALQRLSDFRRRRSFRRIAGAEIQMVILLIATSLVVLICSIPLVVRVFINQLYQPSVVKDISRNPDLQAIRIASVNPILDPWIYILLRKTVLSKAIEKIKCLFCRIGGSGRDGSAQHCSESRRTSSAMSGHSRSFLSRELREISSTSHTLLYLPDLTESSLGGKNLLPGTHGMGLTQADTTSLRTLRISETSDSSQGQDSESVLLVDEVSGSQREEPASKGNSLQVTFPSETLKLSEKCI

| SMILES | EC50 [1, 7] [nM] | IC50 [2, 8] [nM] | Ki [2, 8] [nM] | EC50 ([3]; cAMP by ELISA, 30 minutes, 500 μM IBMX) [nM] | Healing of a calvarial bone defect [4] | EC50 [5, 7] [nM] | EC50 [6] [nM] | EC50 ([3]; cAMP readout, EP4) [nM] | EC50 ([1]; SEAP readout, EP4) [nM] | IC50 ([2]; human EP4 receptor binding) [nM] | Ki ([2]; human EP4 receptor binding) [nM] | EC50 ([5]; SEAP readout, EP2) [nM] |
| --- | --- | --- | --- | --- | --- | --- | --- | --- | --- | --- | --- | --- |
| CCC#CC[C@H](C)[C@H](O)/C=C/[C@H]1CC(F)(F)C(=O)N1CCCCCCC(=O)O [Example 2C, 7-((R)-3,3-difluoro-5-((3S,4S,E)-3-hydroxy-4-methylnon-1-en-6-yn-1-yl)-2-oxopyrrolidin-1-yl)heptanoic acid] | 0.038 ± 0.037 | 1.3 | 0.49 | 0.24 ± 0.08 | Accelerated Healing | > 1000 |  |  |  |  |  |  |
| C[C@@H](CCCc1ccccc1)[C@H](O)CC[C@H]1CC(F)(F)C(=O)N1CCCc1ccc(C(=O)O)s1 [Example 28C-H2, 5-(3-((S)-3,3-difluoro-5-((3R,4S)-3-hydroxy-4-methyl-7-phenylheptyl)-2-oxopyrrolidin-1-yl)propyl)thiophene-2-carboxylic acid] |  |  |  |  |  |  | 1310 | 0.0029 ± 0.0008 |  |  |  |  |
| CCCCC[C@H](O)/C=C/[C@H]1CC(F)(F)C(=O)N1CCCc1ccc(C(=O)O)s1 [Example 33C, 5-(3-((R)-3,3-difluoro-5-((S,E)-3-hydroxyoct-1-en-1-yl)-2-oxopyrrolidin-1-yl)propyl)thiophene-2-carboxylic acid] |  |  |  |  |  |  |  | 0.079 | 0.063 | 0.28 | 0.1 | 326 |
